Read-outs that look alike come from different tables or passages of the source.
Columns and labels:
human IR-B [1] = assay: IR-B autophosphorylation (In-Cell Western); type: cell-based; settings: for EC50: CHO cells overexpressing IR-B, 15 min at 37°C, In-Cell Western, means ± SEM, at least three times, read-out: IR-B auto-phosphorylation EC50
Text: (§1) CHO cells expressing either the IR-A or the IR-B isoform were used for IR autophosphorylation assays using In-Cell Western. For the analysis of IGF1R autophosphorylation the receptor was overexpressed in a mouse embryo fibroblast 3T3 Tet off cell line (BD Bioscience, Heidelberg, Germany) that was stably transfected with IGF1R tetracycline-regulatable expression plasmid resulting in the expression of ∼2.6×10^5 IGF1R per cell (as determined by FACS analysis, unpublished data). In order to determine the receptor tyrosine phosphorylation level, cells were seeded into 96-well plates and grown for 48 h. Cells were serum starved with serum-free medium αMEM (PAN Biotech GmbH, Aidenbach, Germany) for 3–4 h. […] After incubation the medium was discarded and the cells were fixed in 3.75% freshly prepared para-formaldehyde for 20 min. Cells were permeabilized with 0.1% Triton-X-100 in PBS for 20 min. Blocking was performed with Odyssey blocking buffer (LI-COR, Bad Homburg, Germany) overnight at 4°C. Anti-pTyr 4G10 (Millipore, Schwalbach, Germany) was incubated for 2 h at room temperature. After incubation of the primary antibody, cells were washed with PBS+0.1% Tween20. The secondary anti-mouse-IgG-800-CW antibody (Rockland, Gilbertsville, PA, USA) was incubated for 1 h. Results were normalized by the quantification of DNA with TO-PRO3 dye (Invitrogen, Karlsruhe, Germany). Data were obtained as relative units (RU) and are presented as fold over basal.
(§2) For each experiment, IC50 or EC50 values were obtained using the 4-parameter logistic model according to Ratkowsky and Reedy (1986). The adjustment was obtained by non-linear regression using the Levenberg-Marquardt algorithm in SAS v9.1.3 software via Biost@t-Speed V2.0-LTS internal application. If necessary, lower and upper asymptotes were set to 0 and 100, respectively.
(§3) The binding of a constant concentration of [^125I]insulin to plasma membranes from CHO cells overexpressing either IR-A or IR-B was measured in presence of increasing concentrations of unlabeled competing ligand after incubation at room temperature for 12 h. All data has been corrected for non-specific binding and are expressed as percentage of [^125I]insulin in absence of competing ligand. To analyze the insulin-stimulated activation and subsequent autophosphorylation of the insulin receptor CHO cells overexpressing the human IR-A (C) or IR-B (D) were stimulated for 15 min at 37°C with increasing concentrations of peptides, then the cells were fixed with 3.7% PFA and the amount of phosphotyrosines was analyzed via In-Cell Western. The data represent mean values ± SEM of at least 3 individual experiments measured in quadruplicate.
(§4) Insulin receptor autophosphorylation was studied using CHO cells overexpressing either IR-A or IR-B. For detection an immunocytochemical microplate assay (In-Cell Western) based on two-colour fluorescence was applied.

human IGF1R [2] = assay: Competitive binding, IGF1R; settings: for IC50: [^125I]IGF-1 as radioactive ligand, means ± SEM, at least three times, read-out: IGF1R affinity IC50
Method: (§5) Binding experiments were conducted in 96-well microplates. Per well 2 µg of membranes were incubated with 0.25 mg wheat germ agglutinin polyvinyltoluene polyethylenimine SPA beads, 100 pmol/L A14[^125I]-insulin and various concentrations of unlabeled insulins in a binding buffer containing 0.05 mol/L Tris-HCl pH 7.8, 0.15 mol/L NaCl, 0.1% BSA, Complete Protease Inhibitor for 12 hours at room temperature (23°C). The radioactivity was measured at equilibrium in a microplate scintillation counter (Wallac Microbeta, Freiburg, Germany).
as §2
(§6) Figure 4 Activity of insulin analogs on the human IGF1R and mitogenic potential in Saos-2 cells. Analysis of binding to the human IGF1R using [^125I]IGF-1 as radioactive ligand (A) and analysis of the insulin-stimulated autophosphorylation of the human IGF1R overexpressed in MEF cells (B) were done as described in figure 2 and Materials and Methods. Data are given as means ± SEM. […] Confluent cells were starved for 4 h and then incubated for 19 h with increasing concentrations of IGF-1, insulin or analog in serum free medium. [^14C]thymidine was added for further 6 h and the radioactivity measured in a Wallac Micro Scintillation counter. Data are given as means ± SEM from octuplicate sample.

human IGF1R [3] = assay: IGF1R autophosphorylation (In-Cell Western); type: cell-based; settings: for EC50: MEF cells overexpressing IGF1R, 15 min at 37°C, In-Cell Western, means ± SEM, at least three times, read-out: IGF1R auto-phosphorylation EC50; for more potent in stimulation of IGF1R autophosphorylation: relative to human insulin
Text: as §1, §2, §6

human IR-B [4] = assay: Competitive receptor binding (SPA), IR-B; settings: for IC50: SPA, WGA PVT PEI beads, 2 µg membranes from CHO cells overexpressing IR-B, 100 pmol/L A14[^125I]-insulin, pH 7.8, 12 h, 23°C, means ± SEM, at least three times, read-out: IR-B affinity IC50; for IR-B binding, less active than human insulin: decrease relative to human insulin
Method: (§7) The binding of the different insulins to the human IR-A and IR-B was analyzed in a competitive binding assay using the scintillation proximity assay as previously described, [30]. […] Briefly, cells were grown to confluence and gently detached, transferred to a centrifugation tube followed by centrifugation for 10 minutes at 600×g at 4°C. The pellet was resuspended in ice-cold 2.25 STM buffer (2.25 mol/L sucrose, 5 mmol/L Tris-HCl pH 7.4, 5 mmol/L MgCl2, 1x Complete Protease Inhibitor) and disrupted using a hand-held Dounce homogenizer followed by sonication. This homogenate was transferred to a centrifugation tube, overlaid with 0.8 STM buffer (0.8 mol/L sucrose, 5 mmol/L Tris-HCl pH 7.4, 5 mmol/L MgCl2, 1x Complete Protease Inhibitor) and centrifuged for 90 minutes at 100 000×g at 4°C. The emerging pellicle at the interface was collected, transferred to a new tube and washed two times with PBS by centrifugation for 10 minutes at 1500×g. The final pellet was resuspended in a small volume of dilution buffer (50 mmol/L Tris-HCl pH 7.4, 5 mmol/L MgCl2, 1x Complete Protease Inhibitor) and homogenized with a Dounce homogenizer. These plasma membrane preparations were stored until usage at –80°C.
as §5, §2, §3

human IR-A [5] = assay: Competitive receptor binding (SPA), IR-A; settings: for difference in affinity between IR-A and IR-B: IR-A vs IR-B, in words; for IC50: SPA, WGA PVT PEI beads, 2 µg membranes from CHO cells overexpressing IR-A, 100 pmol/L A14[^125I]-insulin, pH 7.8, 12 h, 23°C, means ± SEM, at least three times, read-out: IR-A affinity IC50; for IR-A binding, less active than human insulin: decrease relative to human insulin; for higher affinity for IR-A than IR-B: IR-A relative to IR-B
Method: as §7, §5, §2, §3

human IR-A [6] = assay: IR-A autophosphorylation (In-Cell Western); type: cell-based; settings: for EC50: CHO cells overexpressing IR-A, 15 min at 37°C, In-Cell Western, means ± SEM, at least three times, read-out: IR-A auto-phosphorylation EC50
Text: as §1, §2, §3, §4

Substance	EC50 (human IR-B [1]) [nM]	IC50 (human IGF1R [2]) [nM]	EC50 (human IGF1R [3]) [nM]	more potent in stimulation of IGF1R autophosphorylation (human IGF1R [3])	IC50 (human IR-B [4]) [nM]	IR-B binding, less active than human insulin (human IR-B [4])	difference in affinity between IR-A and IR-B (human IR-A [5])	IC50 (human IR-A [5]) [nM]	IR-A binding, less active than human insulin (human IR-A [5])	EC50 (human IR-A [6]) [nM]	also measured
[Gly^A21,Arg^B31,Arg^B32]insulin [Glargine]	23.6 ± 2.1	63.2 ± 19.9	87.5 ± 10	about 5 fold	1.1 ± 0.12	40–50%	no difference	0.83 ± 0.08	40–50%	18.4 ± 2.4	decrease in IR-B autophosphorylation activity (human IR-B [1]; relative to human insulin): 30–50%; less potent relative to IGF-1 (IGF1R autophosphorylation) (human IGF1R [3]): ~30 times; decrease in IR-A autophosphorylation activity (human IR-A [6]; relative to human insulin): 30–50%
[Asp^B10]insulin	3.32 ± 0.78	104 ± 12.8	72.7 ± 7.6	about 5 fold	0.21 ± 0.03	–	–	0.06 ± 0.01	–	5.1 ± 0.7	less potent relative to IGF-1 (IGF1R autophosphorylation) (human IGF1R [3]): ~25 times; IR-B binding, more potent relative to human insulin (human IR-B [4]; relative to human insulin): 2.7 fold; higher affinity for IR-A than IR-B (human IR-A [5]): 3.5 fold; IR-A binding, more potent relative to human insulin (human IR-A [5]; relative to human insulin): 8.2 fold
[Gly^A21]insulin [Glargine M1]	18.1 ± 1.7	649 ± 31.9	644 ± 56.9	–	1.35 ± 0.2	40–50%	no difference	1.02 ± 0.03	40–50%	18.6 ± 2.5	IGF1R affinity in words (human IGF1R [2]): significantly reduced; EC50 (human IGF1R [3]; listed as M1): > 400 nM
Human insulin: human insulin produced by recombinant DNA techniques or enzymatic semisynthesis	11.7 ± 1.4	–	447 ± 38.7	–	–	–	–	–	–	11 ± 1.3	–
[Gly^A21,des-Thr^B30]insulin [Glargine M2]	21.4 ± 2.3	427 ± 20.6	485 ± 43.6	–	1.09 ± 0.06	40–50%	no difference	0.93 ± 0.16	40–50%	19.2 ± 1.6	IGF1R affinity in words (human IGF1R [2]): significantly reduced; EC50 (human IGF1R [3]; listed as M2): > 400 nM
[Gly^A21,Arg^B31]insulin [Glargine IM]	20.9 ± 1.3	80 ± 10.2	179 ± 19.6	2 fold	1.08 ± 0.06	40–50%	no difference	0.78 ± 0.03	40–50%	23.1 ± 2.7	–
IGF-1: IGF-1 obtained from R&D Systems and Cell Sciences	> 1000	0.89 ± 0.19	2.9 ± 0.4	–	171 ± 50	–	–	64.5 ± 5.1	–	449 ± 61.7	IR-B affinity less potent than human insulin (human IR-B [4]; IR-B, relative to human insulin): ~300 fold; higher affinity for IR-A than IR-B (human IR-A [5]): 2.7 fold; IR-A affinity less potent than human insulin (human IR-A [5]; IR-A, relative to human insulin): approximately 130 fold

Source: publication PMC2832019, “In Vitro Metabolic and Mitogenic Signaling of Insulin Glargine and Its Metabolites” (PLoS ONE, 2010)
